Laboratory results reported in paper PMC3908613 (Bioscience Reports, 2014).

What was measured:
[1] = test system: Aurora B; conditions: cited from earlier work
[2] = target: T1, Slk (Mus musculus, UniProt O54988); experiment: Activity of Slk immunoprecipitated from BMDC; assay type: biochemical, C57BL/6 mice; conditions: immunoprecipitates treated with 1 μM D1870; resting and LPS-stimulated DC
T1 construct: Mst1, Lok and Slk were immunoprecipated from 150 μg, 850 μg and 1 mg of cell lysates respectively; endogenous in cells; host or cells: mouse bone-marrow-derived dendritic cells (BMDC), immunoprecipitate
T1 sequence (O54988 whole entry): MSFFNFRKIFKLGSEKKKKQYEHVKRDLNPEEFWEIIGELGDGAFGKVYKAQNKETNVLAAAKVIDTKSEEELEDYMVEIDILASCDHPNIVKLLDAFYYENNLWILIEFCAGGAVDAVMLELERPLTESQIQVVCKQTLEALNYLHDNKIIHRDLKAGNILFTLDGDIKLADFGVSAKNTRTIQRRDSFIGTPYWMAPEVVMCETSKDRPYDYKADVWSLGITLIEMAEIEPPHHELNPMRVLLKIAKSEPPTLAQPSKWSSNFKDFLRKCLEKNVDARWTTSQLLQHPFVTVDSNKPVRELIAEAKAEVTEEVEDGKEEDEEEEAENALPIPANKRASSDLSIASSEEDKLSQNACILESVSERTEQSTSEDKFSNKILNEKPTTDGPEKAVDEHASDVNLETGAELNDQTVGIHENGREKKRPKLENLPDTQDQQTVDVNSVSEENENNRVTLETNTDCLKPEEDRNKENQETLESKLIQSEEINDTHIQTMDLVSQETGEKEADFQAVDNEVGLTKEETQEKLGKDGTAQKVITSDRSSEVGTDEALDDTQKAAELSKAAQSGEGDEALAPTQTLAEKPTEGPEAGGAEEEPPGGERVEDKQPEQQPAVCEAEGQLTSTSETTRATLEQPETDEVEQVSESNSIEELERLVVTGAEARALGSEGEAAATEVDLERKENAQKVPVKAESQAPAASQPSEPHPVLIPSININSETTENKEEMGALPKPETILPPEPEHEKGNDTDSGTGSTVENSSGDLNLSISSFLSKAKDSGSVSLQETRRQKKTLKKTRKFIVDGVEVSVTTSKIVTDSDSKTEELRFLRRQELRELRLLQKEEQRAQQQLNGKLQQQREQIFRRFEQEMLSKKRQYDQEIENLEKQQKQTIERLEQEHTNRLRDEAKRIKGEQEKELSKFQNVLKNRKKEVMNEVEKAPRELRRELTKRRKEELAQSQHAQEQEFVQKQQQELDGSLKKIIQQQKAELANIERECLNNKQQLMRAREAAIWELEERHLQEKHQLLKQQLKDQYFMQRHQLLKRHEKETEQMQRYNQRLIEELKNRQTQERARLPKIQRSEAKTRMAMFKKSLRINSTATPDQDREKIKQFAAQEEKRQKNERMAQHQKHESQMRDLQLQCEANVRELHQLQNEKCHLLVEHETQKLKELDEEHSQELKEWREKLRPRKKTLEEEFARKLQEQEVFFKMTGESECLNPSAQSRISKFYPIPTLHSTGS
Method: (§1) Equal numbers of BMDC (1×10^7/dish) were incubated in 15 cm dishes in RPMI supplemented with 0.3% FCS for 3 h at 37°C then incubated for 30 min with or without 50 ng/ml LPS. The cells were washed once in cold PBS and lysed in the lysis buffer described above. Mst1, Lok and Slk were immunoprecipated from 150 μg, 850 μg and 1 mg of cell lysates respectively with 2 μg of anti-MST1 (Cell Signalling), anti-Slk (Bethyl) or anti-Lok (Bethyl) or control IgG (Santa Cruz Biotech) coupled to G-protein Sepharose (Amersham) for 1 h at 4°C. […] Kinase assays were performed as described above.
(§2) A combination of SILAC and nucleotide acyl
(§3) Alexander J. EDGAR*, Matthias TROST†, Colin WATTS*1 and Rossana ZARU*1
(§4) *Division of Cell Signalling and Immunolog y, University of Dundee, Dow Street, Dundee DD1 5EH, U.K., and †MRC Protein Phosphor ylation and Ubiquitylation Unit, College of Life Sciences, University of Dundee, Dow Street, Dundee DD1 5EH, U.K.
(§5) Supplementary Table S1 is available at http://www.bioscirep.
(§6) Mst1, Lok and Slk activities in DC either unstimulated or stimulated with LPS (50 ng/ml) for 30 min at 37 ◦ C. Immuno- […]
(§7) of triplicate stimulations. *P < 0.05, **P < 0.01, ***P < 0.001, ns not signiﬁcant.
(§8) 1 Correspondence may be addressed to either of these authors (email c.watts@dundee.ac.uk or r.zaru@dundee.ac.uk). […]

[3] = target: T2, GST-Lok (Homo sapiens, UniProt O94804); experiment: Kinase assay for recombinant Lok; assay type: biochemical; conditions: 25 μM ATP, 100 μM AXLTIDE substrate
T2 construct: GST; purchased DSTT
T2 sequence (O94804 whole entry): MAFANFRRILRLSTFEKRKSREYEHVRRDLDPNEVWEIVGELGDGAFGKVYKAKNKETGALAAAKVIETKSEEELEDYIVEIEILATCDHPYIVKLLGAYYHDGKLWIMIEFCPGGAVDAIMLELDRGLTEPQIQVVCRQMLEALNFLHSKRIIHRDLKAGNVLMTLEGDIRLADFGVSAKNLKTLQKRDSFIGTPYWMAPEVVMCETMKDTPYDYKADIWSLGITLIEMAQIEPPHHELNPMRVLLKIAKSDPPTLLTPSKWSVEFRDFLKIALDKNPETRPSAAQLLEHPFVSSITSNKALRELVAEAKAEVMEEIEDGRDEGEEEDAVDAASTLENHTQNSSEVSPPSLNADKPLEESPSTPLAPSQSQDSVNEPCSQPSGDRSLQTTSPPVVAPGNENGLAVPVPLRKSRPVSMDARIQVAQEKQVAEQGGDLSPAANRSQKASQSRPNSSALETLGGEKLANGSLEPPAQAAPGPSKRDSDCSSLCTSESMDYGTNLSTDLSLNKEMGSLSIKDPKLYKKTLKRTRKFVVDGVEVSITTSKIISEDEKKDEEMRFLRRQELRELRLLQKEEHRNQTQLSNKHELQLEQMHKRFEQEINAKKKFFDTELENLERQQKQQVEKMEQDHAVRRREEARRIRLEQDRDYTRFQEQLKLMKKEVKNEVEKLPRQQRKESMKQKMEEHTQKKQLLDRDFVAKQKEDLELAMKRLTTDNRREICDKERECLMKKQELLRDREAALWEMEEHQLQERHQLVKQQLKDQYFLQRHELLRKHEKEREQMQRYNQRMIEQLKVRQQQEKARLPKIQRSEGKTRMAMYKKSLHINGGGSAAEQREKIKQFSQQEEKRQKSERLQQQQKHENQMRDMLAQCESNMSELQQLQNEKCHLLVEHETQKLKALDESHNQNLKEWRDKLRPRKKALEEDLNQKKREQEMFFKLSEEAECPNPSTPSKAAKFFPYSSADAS
Method: The kinase reaction for Lok and Slk was supplemented with 12.5 mM sodium glycerophosphate and 0.25 mM sodium orthovanadate. The reactions were incubated for 15–20 min at 30°C then terminated and analysed as described previously [14].

[4] = target: T3, PLK1 (Mus musculus, UniProt Q07832); experiment: Desthiobiotin-ATP probe capture on streptavidin beads, Western blot; assay type: binding, C57BL/6 mice; conditions: 10 μM inhibitor, DC lysate
T3 construct: endogenous in cells; host or cells: mouse spleen-derived dendritic cells (SDC), lysate
T3 sequence (Q07832 whole entry): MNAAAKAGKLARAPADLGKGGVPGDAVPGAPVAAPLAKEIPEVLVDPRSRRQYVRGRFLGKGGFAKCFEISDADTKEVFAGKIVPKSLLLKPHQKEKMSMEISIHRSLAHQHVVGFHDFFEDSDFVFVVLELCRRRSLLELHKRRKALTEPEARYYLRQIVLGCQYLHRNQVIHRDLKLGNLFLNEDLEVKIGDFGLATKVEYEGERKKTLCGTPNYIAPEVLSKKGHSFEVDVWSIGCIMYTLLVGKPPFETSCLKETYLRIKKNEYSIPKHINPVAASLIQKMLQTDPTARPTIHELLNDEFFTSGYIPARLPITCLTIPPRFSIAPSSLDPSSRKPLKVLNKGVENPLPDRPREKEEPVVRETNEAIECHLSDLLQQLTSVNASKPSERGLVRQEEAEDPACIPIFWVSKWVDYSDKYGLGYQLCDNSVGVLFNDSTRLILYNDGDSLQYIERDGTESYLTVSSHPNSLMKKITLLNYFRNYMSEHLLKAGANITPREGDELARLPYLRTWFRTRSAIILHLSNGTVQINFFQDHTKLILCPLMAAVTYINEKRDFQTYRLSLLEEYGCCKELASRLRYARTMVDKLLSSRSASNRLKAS
Method: SDC were cultured for at least 14 days in RPMI (without arginine and lysine, custom-made by Biosera) containing 10% dialysed FCS (Hyclone) supplemented with 84 mg/l of L-arginine (Sigma) and 40 mg/l L-lysine (Sigma) for the ‘light’ medium or 84 mg/l of L-arginine ^13C6 or ^13C10 and 40 mg/l L-lysine ^13C6 (Cambridge Isotope Laboratory) for the ‘heavy’ medium. Equal numbers (2×10^7) of ‘light’ or ‘heavy’ labelled SDCs were incubated in RPMI containing 0.5% FCS for 3 h in 15 cm dishes. The cells were lysed in the lysis buffer provided in the kit (Pierce). […] Labelling with the desthiobiotin ATP probe, and precipitation with streptavidin beads were performed according to the manufacturer's instructions (Pierce kinase enrichment kit or ActivX™). Equal amount of streptavidin precipitates were separated by electrophoresis as described above and probed with antibodies against Rsk2, Lok (Bethyl), Slk (Bethyl), PLK1 (Calbiochem), p38, Erk2 and Mst1 (from Cell Signaling).

[5] = target: T4, Lok (Mus musculus, UniProt O55098); experiment: Activity of Lok immunoprecipitated from BMDC; assay type: biochemical, C57BL/6 mice; conditions: immunoprecipitates treated with 1 μM D1870; resting and LPS-stimulated DC
T4 construct: Mst1, Lok and Slk were immunoprecipated from 150 μg, 850 μg and 1 mg of cell lysates respectively; endogenous in cells; host or cells: mouse bone-marrow-derived dendritic cells (BMDC), immunoprecipitate
T4 sequence (O55098 whole entry): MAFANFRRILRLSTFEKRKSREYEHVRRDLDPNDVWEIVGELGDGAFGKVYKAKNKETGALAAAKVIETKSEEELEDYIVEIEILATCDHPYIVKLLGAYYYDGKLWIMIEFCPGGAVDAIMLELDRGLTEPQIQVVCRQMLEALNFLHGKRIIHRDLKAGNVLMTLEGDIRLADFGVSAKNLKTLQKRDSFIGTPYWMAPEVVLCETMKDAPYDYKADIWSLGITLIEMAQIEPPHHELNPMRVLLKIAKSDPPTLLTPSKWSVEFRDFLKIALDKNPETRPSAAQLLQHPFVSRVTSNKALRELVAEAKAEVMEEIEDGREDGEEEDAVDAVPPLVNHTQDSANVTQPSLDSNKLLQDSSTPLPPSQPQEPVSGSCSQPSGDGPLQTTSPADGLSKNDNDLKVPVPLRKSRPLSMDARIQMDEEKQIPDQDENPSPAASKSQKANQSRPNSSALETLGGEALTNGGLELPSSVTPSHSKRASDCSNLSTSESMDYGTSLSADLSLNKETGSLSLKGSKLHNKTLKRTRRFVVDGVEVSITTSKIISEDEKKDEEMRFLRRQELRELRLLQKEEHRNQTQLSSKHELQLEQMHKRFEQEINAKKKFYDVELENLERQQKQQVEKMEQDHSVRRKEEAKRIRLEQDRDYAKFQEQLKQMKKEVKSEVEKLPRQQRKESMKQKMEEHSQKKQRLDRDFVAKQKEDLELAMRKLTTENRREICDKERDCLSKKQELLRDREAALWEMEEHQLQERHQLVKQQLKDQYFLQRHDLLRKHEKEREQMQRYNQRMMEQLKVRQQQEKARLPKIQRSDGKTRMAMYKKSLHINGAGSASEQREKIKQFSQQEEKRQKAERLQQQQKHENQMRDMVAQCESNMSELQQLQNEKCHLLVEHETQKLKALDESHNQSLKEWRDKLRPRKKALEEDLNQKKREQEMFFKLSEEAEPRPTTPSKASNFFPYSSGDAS
Method: as §1, §2, §3, §4, §5, §6, §7, §8

In the case of `CC(C)CCN1c2nc(Nc3cc(F)c(O)c(F)c3)ncc2N(C)C(=O)C1C` (centres unmarked) [D1870, BI-D1870], the IC50 [1] is listed as 0.34 µM, the “kinase activity of Slk immunoprecipitated from DC” value [2] is listed as “significantly blocked” and the IC50 [3] is listed as 0.5 µM. For the same compound, the “Recovery of PLK1 on streptavidin beads” value [4] was “blocked” and the “kinase activity of Lok immunoprecipitated from DC” value [5] was “substantially inhibited”.
